This note sets out measurements from patent publication US20240011070A1, “METHODS AND COMPOSITIONS FOR PROTEASE REPORTER ASSAYS AND MODULATORS” (712 North Inc., priority 2020, published 2024).

The structures appear in SMILES notation. “Also recorded” adds a separate entry of the source. Read-outs that look alike come from different tables or passages of the source.

Data set [1] has as its target T1, OMA1 protease (Homo sapiens, UniProt Q96E52).
T1 sequence (Q96E52 144-524): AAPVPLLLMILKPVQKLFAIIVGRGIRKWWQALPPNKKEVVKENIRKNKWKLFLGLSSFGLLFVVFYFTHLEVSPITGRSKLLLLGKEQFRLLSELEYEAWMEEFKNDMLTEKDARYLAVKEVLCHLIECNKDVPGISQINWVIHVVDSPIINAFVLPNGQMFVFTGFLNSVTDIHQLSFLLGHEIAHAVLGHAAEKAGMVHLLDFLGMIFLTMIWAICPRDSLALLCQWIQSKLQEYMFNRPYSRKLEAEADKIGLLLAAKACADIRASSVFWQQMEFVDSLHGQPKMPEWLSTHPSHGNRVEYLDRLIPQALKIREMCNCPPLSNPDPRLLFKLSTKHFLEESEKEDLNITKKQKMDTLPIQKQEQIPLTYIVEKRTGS
In words: Rep #01 luciferase reporter assay in Hek293T cells. To be noted: for bioluminescence of reporter #01 (mitochondrial toxicity): Hek293T cells exposed 30 minutes. An excerpt: Example 1 provides a nonlimiting example of generation and use of a reporter of present invention and illustrates its function. To this end, generation and use of reporter gene #01 (SEQ ID NO: 01) and reporter gene #15 (SEQ ID NO: 15) are described and their function compared to each other. The general design of a reporter of present invention is illustrated in FIG. 1A and its working principle in FIG. 1B. A reporter in general, and reporter gene #01 and reporter gene #15 in particular, can be generated as follows. DNA sequences of a reporter may be codon-optimized in silico or by any other way for expression in a suitable host. DNA sequences of reporter genes #01 and #15 were codon-optimized for expression in humans (SEQ ID NO: 02 and SEQ ID NO: 16, respectively). The (optimized) sequences were synthesized and cloned into a pcDNA3.1 expression vector under the control of a CMV promotor (see FIG. 1 for an illustration of such vector). Of course, an expression system and a host should match for best results. The host in this example were Hek293T cells, which were maintained under standard culture conditions in DMEM with 10% Fetal Bovine Serum and 1% Pen/Strep. For an experiment, Hek293T cells were seeded in opaque white tissue-culture treated 96-well plates at 80% confluency and transfected with vectors carrying reporter gene #01 and reporter gene #15 and 24 hours later incubated for 30 minutes at 37° C. in OptiMEM or in OptiMEM with 10 μM CCCP. After 30 minutes, the OptiMEM cell-culture media was replaced with luciferase substrate (furimazine, Promega) diluted 1:100 in OptiMEM, and bioluminescence was measured with a Fluoroskan Ascent FL (Thermo Scientific) using a 517 nm single-pass filter and 200 milliseconds integration time. […]
Example 5 illustrates how mitochondrial toxicity can be measured with reporter and assays of present invention. […] Hek293T cells expressing reporter #01 and #15 were exposed to CCCP, tipranavir and sorafenib (in OptiMEM) for 30 minutes before the medium was replaced with furimazine (1:100), and bioluminescence measured.

For data set [2], the target named is T1, OMA1 protease. In words: Reporter hydrolysis in Hek293T reporter cells by Western blot. The data set is classed as cell-based. On the set-up: The OMA 1 enzyme is dormant under physiological cell culture conditions in these cells; endogenous in cells. Particulars: for Luke-S1 reporter cleavage in Western blots / Luke-TEV reporter cleavage in Western blots: 3 μM CCCP or 100 nM valinomycin. As to the method: For this example, transfected cells were selected by puromycin. […] […] If reporter #15 indeed is cleaved by OMA1, then phenanthroline should prevent this at least to a certain extend by inhibiting OMA1 and accordingly preserving the signal. Hek293T cells were transfected with reporter gene #15 as described in the preceding example. After 24 hours, the transfected cells were incubated with 500 μM phenanthroline in OptiMEM. After 1 hour of pretreatment, CCCP in OptiMEM/phenanthroline was added to a final concentration of 10 μM CCCP and cells incubated for another 30 minutes at 37° C. After 30 minutes, the medium was replaced with furimazine (1:100 in OptiMEM), and bioluminescence measured as described in Example 1.
(§1) OPA1 hydrolysis can be monitored by Western blotting. […] The predicted size of full-length Luke-S1 is 31.8 kDa.

Another data set relates to L-OPA1. In words: OPA1 hydrolysis in Hek293T cells by Western blot. The data set is classed as cell-based. To be noted: 30 minutes.
Excerpt: as §1

Data set [3] concerns the target T1, OMA1 protease. In words: cell-based. An excerpt:
Example 1 provides a nonlimiting example of generation and use of a reporter of present invention and illustrates its function. To this end, generation and use of reporter gene #01 (SEQ ID NO: 01) and reporter gene #15 (SEQ ID NO: 15) are described and their function compared to each other. The general design of a reporter of present invention is illustrated in FIG. 1A and its working principle in FIG. 1B. A reporter in general, and reporter gene #01 and reporter gene #15 in particular, can be generated as follows. DNA sequences of a reporter may be codon-optimized in silico or by any other way for expression in a suitable host. DNA sequences of reporter genes #01 and #15 were codon-optimized for expression in humans (SEQ ID NO: 02 and SEQ ID NO: 16, respectively). The (optimized) sequences were synthesized and cloned into a pcDNA3.1 expression vector under the control of a CMV promotor (see FIG. 1 for an illustration of such vector). Of course, an expression system and a host should match for best results. The host in this example were Hek293T cells, which were maintained under standard culture conditions in DMEM with 10% Fetal Bovine Serum and 1% Pen/Strep. For an experiment, Hek293T cells were seeded in opaque white tissue-culture treated 96-well plates at 80% confluency and transfected with vectors carrying reporter gene #01 and reporter gene #15 and 24 hours later incubated for 30 minutes at 37° C. in OptiMEM or in OptiMEM with 10 μM CCCP. After 30 minutes, the OptiMEM cell-culture media was replaced with luciferase substrate (furimazine, Promega) diluted 1:100 in OptiMEM, and bioluminescence was measured with a Fluoroskan Ascent FL (Thermo Scientific) using a 517 nm single-pass filter and 200 milliseconds integration time. […] Reporter #01 comprises a large part of OPA1's amino-terminus as mitochondrial targeting sequence, which is cleaved by the mitochondrial processing peptidase upon mitochondrial import (see Example 2). Reporter #15 was initially envisioned as a control for reporter #01. Reporter #15 therefore lacks the first 66 amino acids of reporter #01 believed to be essential for mitochondrial import.
Example 5 illustrates how mitochondrial toxicity can be measured with reporter and assays of present invention. The OMA1-OPA1 pathway basically serves as a “canary-in-the-coalmine” for a mitochondrial deterioration. […] Hek293T cells expressing reporter #01 and #15 were exposed to CCCP, tipranavir and sorafenib (in OptiMEM) for 30 minutes before the medium was replaced with furimazine (1:100), and bioluminescence measured.

The target in data set [4] is T1, OMA1 protease. The experiment in a line: Luke-TEV (TEV site instead of S1) reporter assay in Hek293T cells. It is filed as cell-based. On the set-up: The OMA 1 enzyme is dormant under physiological cell culture conditions in these cells; endogenous in cells.
The target of data set [5] is OMA1 protease (Mus musculus, UniProt Q9D8H7). Particulars: Neuro2A cells. An excerpt: In this example, the S1-cleavage site of reporter #15 was replaced with a TEV-cleavage site (see also Example 6). Neuro2A cells were transfected with reporter #15-S1 and reporter #15-TEV and selected by puromycin. […] FIG. 7 provides an overview of the arrangement of elements of different reporter genes, which comprise inter alia the amino acid sequences of SEQ ID NO: 01 (Rep #01), SEQ ID NO: 03 (Rep #04), SEQ ID NO: 09 (Rep #08), SEQ ID NO: 13 (Rep #10), and SEQ ID NO: 15 (Rep #15).

The target of another data set is T2, NanoLuc luciferase (Oplophorus gracilirostris, UniProt Q9GV45, A31E/A60N/A81I/F95D/I117V/K70R/L54V/L99Q/M102K/N193R/P142E/Q151K/Q38R/Q45L/V71I/Y165I).
T2 construct: expressed in transfected cells; host or cells: 'Luke' cells
The experiment in a line: Luke (native NanoLuc) control cell assay in Hek293T cells. The data set is classed as cell-based.

Data set [6] concerns the target T1, OMA1 protease. The experiment in a line: Rep #15 / Luke-S1 assay for OMA1 inhibitors (preincubation with test compound, then OMA1 activator). It is filed as cell-based. Further details: The OMA 1 enzyme is dormant under physiological cell culture conditions in these cells; endogenous in cells. To be noted: 500 μM phenanthroline 1 hour, then 10 μM CCCP 30 minutes. The method, then: Example 2 refers to FIG. 4 and illustrates hydrolysis of reporter #01 and reporter #15. For this example, transfected cells were selected by puromycin. Reporter cells were exposed for 30 minutes to 10 μM CCCP before being harvested in RIPA buffer and subjected to 12% SDS-PAGE followed by Western-blotting. […] Full-length reporter #01 has a predicted size of 39.6 kDa but was not detected in Western blots. […] At the same time, reporter #15 is not processed upon import, but migrated at its expected size of 31.9 kDa. (Example 7 establishes mitochondrial import by showing co-migration of reporter #15 with OPA1 and OMA1 in mitochondria-enriched fractions.) Reporter #15 appears to be more abundant and stable, which may explain its better performance. […] This provides additional evidence that reporter #15 is indeed localized in mitochondria where it is recognized and hydrolyzed by OMA1. […] Therefore, phenanthroline was used as a positive control in the reporter assay. If reporter #15 indeed is cleaved by OMA1, then phenanthroline should prevent this at least to a certain extend by inhibiting OMA1 and accordingly preserving the signal. Hek293T cells were transfected with reporter gene #15 as described in the preceding example. […] After 30 minutes, the medium was replaced with furimazine (1:100 in OptiMEM), and bioluminescence measured as described in Example 1. […]

T2 sequence (Q9GV45 with tags, fused parts or gaps with the stated changes): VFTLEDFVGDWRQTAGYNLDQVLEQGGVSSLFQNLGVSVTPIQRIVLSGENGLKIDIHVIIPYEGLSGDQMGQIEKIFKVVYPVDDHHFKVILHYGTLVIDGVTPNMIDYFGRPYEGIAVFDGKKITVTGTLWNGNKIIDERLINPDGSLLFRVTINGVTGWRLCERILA
Chain of OMA1 protease (Mus musculus, UniProt Q9D8H7) (Q9D8H7 140-521): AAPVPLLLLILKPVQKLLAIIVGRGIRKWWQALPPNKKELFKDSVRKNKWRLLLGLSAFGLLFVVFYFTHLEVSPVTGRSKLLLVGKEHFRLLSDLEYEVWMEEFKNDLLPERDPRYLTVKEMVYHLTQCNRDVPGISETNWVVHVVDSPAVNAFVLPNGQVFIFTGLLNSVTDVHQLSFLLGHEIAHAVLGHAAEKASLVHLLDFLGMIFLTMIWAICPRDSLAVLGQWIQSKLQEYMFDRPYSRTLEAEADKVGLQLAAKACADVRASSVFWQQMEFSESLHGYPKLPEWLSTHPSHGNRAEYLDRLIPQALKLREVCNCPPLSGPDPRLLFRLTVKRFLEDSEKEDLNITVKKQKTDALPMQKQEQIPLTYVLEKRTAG
Excerpt for NanoLuc luciferase: Example 6 refers to FIG. 11 and introduces the Luke-S1 reporter cell line, which is based on a modified NanoLuc complementation system (Dixon, et al. ACS Chem Biol (2016) 11(2): 400-8). […] Luke-S1 is targeted to the mitochondrial inner membrane by an 86 amino acid portion of OPA1's c-terminus with the protein sequence SEQ ID NO: 27 and the DNA sequence SEQ ID NO:28. A reporter in which the S1 site was replaced by a TEV cleavage site (referred to as ‘Luke-TEV’) and the native NanoLuc enzyme (referred to as ‘Luke’) served as controls.

For the molecule `N#CC(C#N)=NNc1cccc(Cl)c1` [CCCP, carbonyl cyanide m-chlorophenyl hydrazone], the “bioluminescence signal of reporter #01” value at OMA1 protease [1] (10 μM CCCP, 30 minutes) is “significantly reduced”. Also, the “bioluminescence of reporter #01 (mitochondrial toxicity)” value at OMA1 protease [1] was “significantly reduced bioluminescence”. At OMA1 protease [2], the “Luke-S1 reporter cleavage in Western blots” value is “induced cleavage of the Luke-S1 reporter” and the “Luke-TEV reporter cleavage in Western blots” value is on record as “cleaved”. For the same molecule, at OMA1 protease [2] (10 μM CCCP, 30 minutes), the “processing of reporter #01 in Western blot” value is “led to processing” and the “processing of reporter #15 in Western blot” value is reported as “led to processing”. Also, in the data set on L-OPA1 (3 μM CCCP), the “OPA1 hydrolysis in Western blots” value is reported as “complete disappearance of L-OPA1 isoforms; also recorded: complete L-OPA1 proteolysis”.

With `CCC[C@@]1(CCc2ccccc2)CC(O)=C([C@H](CC)c2cccc(NS(=O)(=O)c3ccc(C(F)(F)F)cn3)c2)C(=O)O1` [tipranavir], the half-maximal effective concentration (EC50) on OMA1 protease [3] is 9 µM. At OMA1 protease [1], the “bioluminescence of reporter #01 (mitochondrial toxicity)” value is given as “deactivated; also recorded: significantly reduced bioluminescence”.

As for `CC(C)[C@@H]1NC(=O)[C@H](C)OC(=O)[C@@H](C(C)C)NC(=O)[C@@H](C(C)C)OC(=O)[C@H](C(C)C)NC(=O)[C@H](C)OC(=O)[C@@H](C(C)C)NC(=O)[C@@H](C(C)C)OC(=O)[C@H](C(C)C)NC(=O)[C@H](C)OC(=O)[C@@H](C(C)C)NC(=O)[C@@H](C(C)C)OC1=O` [valinomycin], the “real-time bioluminescence versus cells without valinomycin” value at OMA1 protease [4] (Luke-TEV, 100 nM valinomycin added with luciferase substrate) was “much smaller difference”; on OMA1 protease [3] (Luke-S1, 100 nM valinomycin added with luciferase substrate, 25 minutes) it was “marked signal reduction from the start of the measurement”; on NanoLuc luciferase (Luke, 100 nM valinomycin added with luciferase substrate, after 10 minutes) it was “no notable differences”. Also, the “effect on Luke-TEV signal” value at OMA1 protease [4] (dose-response, 30 minutes) is recorded as “only a minor signal reduction”. This molecule also came in with an EC50 at OMA1 protease [3] of 0.0176 µM. The “Luke-S1 signal, cells transfected with OMA1 siRNA” value on OMA1 protease [3] (100 nM valinomycin, 30 minutes) is “no significant signal reduction”. Moreover, the “Luke-S1 signal, cells transfected with control siRNA” value on OMA1 protease [3] (100 nM valinomycin, 30 minutes) is reported as “significant signal reduction”. Further, the “signal intensity normalized to untreated cells” value at OMA1 protease [3] (valinomycin treated controls of the cancer drug screen, untreated = 100%) was 18.5%. The “half maximal effective concentration (EC50)” value at OMA1 protease [5] (reporter #15-S1, 30 minutes) is reported as “low nanomolar range”; on OMA1 protease [5] (reporter #15-TEV, 30 minutes) it was “low nanomolar range”. Besides, the “Luke-S1 reporter cleavage in Western blots” value at OMA1 protease [2] is “induced cleavage of the Luke-S1 reporter”. For the same molecule, the “Luke-TEV reporter cleavage in Western blots” value on OMA1 protease [2] was “cleaved”. The “OPA1 hydrolysis in Western blots” value in the data set with L-OPA1 (0.1 μM (100 nM) valinomycin) is listed as “sufficed for OPA1 cleavage; also recorded: complete L-OPA1 proteolysis”. Moreover, on NanoLuc luciferase (dose-response, 30 minutes), the “effect on Luke bioluminescence” value is listed as “no effects”.

At OMA1 protease [3], `COC1=CC(=O)O[C@@H](/C=C/c2ccccc2)C1` [kavain, Kavain] came in with an EC50 of 14 µM.

Consider `c1cnc2c(c1)ccc1cccnc12` [phenanthroline], for which the “bioluminescence signal of reporter #15 after pretreatment” value on OMA1 protease [6] is “prevented reporter #15 deactivation and maintained the bioluminescence signal; also recorded: largely preserved”.
